Measured values reported in patent EP0167954A2, “1-Hydroxy-cytorhodines, a microbiological method for their preparation and their use as cytostatic agents” (HOECHST AKTIENGESELLSCHAFT, priority 1984, dated 1986).
Values after ≈ are worked out from the molar mass of the structure shown. Like-named read-outs stand apart in the source and are kept apart here.

Tests used:
L1210 Leukämiezellen = test: Colony formation of L1210 leukaemia cells in soft agar; assay type: cell-based, Maus; settings: Mus musculus
From the text: (§1) Die Bestimmung der zytostatischen Wirksamkeit der hier beschriebenen Verbindungen erfolgte an L1210 Leukämiezellen der Maus. Im einzelnen wurden folgende Testsysteme verwendet:
b) Koloniebildung von L1210 Leukämiezellen in soft agar.
Diese Methode dient zum Nachweis eines Einflusses der Testsubstanzen auf das Wachstumsverhalten der Zellen über mehrere Generationen (bei einer Zellzykluszeit von 10-12 Stunden werden in der Testzeit von 7 Tagen ca. 14 aufeinanderfolgende Generationen beobachtet).
Zytostatisch wirksame Substanzen bewirken in diesem Test eine Reduktion der zu beobachtenden Koloniezahl gegenüber einer unbehandelten Kontrolle. Im einzelnen wird der Test wie folgt durchgeführt:
500 Leukämiezellen pro Platte werden mit unterschiedlichen Konzentrationen von Testsubstanz 1 Stunde bei 37°C inkubiert. Anschließend werden die Zellen zweimal mit McCoy5A Medium gewaschen und schließlich in Petrischalen nach Zusatz von 0,3 % Agar ausgegossen. Kontrollen werden lediglich mit frischem Medium inkubiert. Anstelle der lstündigen Inkubation werden in manchen Fällen unterschiedliche Konzentrationen und Testsubstanz der oberen Agarschicht zugemischt, um so eine kontinuierliche Exposition der Zellen über die gesamte Inkubationszeit zu erreichen. Nach Erstarren des Agars werden die Platten im Brutschrank 7 Tage bei 37°C inkubiert (5 % C02, 95 % relative Luftfeuchtigkeit). Anschließend wird die Anzahl der entstandenen Kolonien mit einem Durchmesser 60 p gezählt. Die Ergebnisse werden angegeben als Koloniezahl in behandelten Agarplatten in Prozent der unbehandelten Kontrolle. Aus der so erhaltenen Dosiswirkungskurve wird die IC50 als Maß für die Wirksamkeit der Substanz ermittelt. Die Ergebnisse für die hier beschriebenen Verbindungen im Vergleich zu Adriamycin sind in der Tabelle 1 zusammengefaßt.

[1] = system: L1210 Leukämiezellen der Maus; test: Proliferation assay (incorporation of C14-labelled thymidine); assay type: cell-based; settings: Mus musculus
From the text: as §1
Bei dieser Methode wird in vitro nach Inkubation der Zellen mit unterschiedlichen Konzentrationen der Testsubstanz ermittelt, inwieweit die Zellen radioaktive DNA-Vorläufer (z.B. C14 markiertes Thymidin) einbauen können. Unbehandelte L1210 Zellen werden den gleichen Testbedingungen unterworfen und dienen als Kontrolle. Im folgenden ist die Methode kurz beschrieben.
L1210 Zellen in exponentieller Wachstumsphase (5 x 10^3/ml in RPMI 1640) werden in einer Mikrotiterplatte 72 Stunden mit unterschiedlichen Konzentrationen der Testsubstanz inkubiert (37°C, 5 % C021 95 % relative Luftfeuchte). Kontrolle bestehen aus Zellen, die lediglich mit frischem Medium inkubiert werden. Alle Bestimmungen werden als 4fach Bestimmungen durchgeführt. Nach 65 Stunden werden 50 µl C-1 14 Thymidin (1,5 µc/ml) zugegeben, um die DNA der Zelle radioaktiv zu markieren. Nach 7 Stunden Inkubation werden die Zellen abgesaugt, die DNA mit 5%iger Trichloressigsäure gefällt und nacheinander mit Wasser bzw. Methanol gewaschen.
Nach Trocknung bei 50°C wird die in die DNA eingebaute Radioaktivität nach Zugabe von 5 ml Szintillationsflüssigkeit ermittelt.
Die Ergebnisse werden angegeben als Verhältnis des Szintillationsindex nach Inkubation mit der Testsubstanz in Prozent der unbehandelten Kontrolle. Aus den so erhaltenen Meßwerten wird die Dosiswirkungskurve ermitelt und graphisch die IC50, d.h. die Konzentration, die unter Testbedingungen den Einbau von radioaktivem Thymidin um 50 % gegenüber der Kontrolle erniedrigt, ermittelt. Die IC50 Werte der hier beschriebenen Verbindungen im Vergleich zu Adriamycin (ADM) werden in der Tabelle 1 zusammengefaßt.

[2] = L1210, 168 h, read-out: Koloniebildungstest IC50, 7 Tage Inkubation
[3] = L1210, read-out: Koloniebildungstest IC50, 1 Stunde Inkubation
[4] = L1210, read-out: Proliferationstest IC50

SMILES	IC50 (L1210 Leukämiezellen; [2])	IC50 (L1210 Leukämiezellen; [3])	IC50 [1, 4]	IC50 (L1210 Leukämiezellen; 168 h, L1210 cells in soft agar, continuous exposure (substance mixed into upper agar layer), 7 days at 37°C, read-out: Koloniebildungstest IC50, 7 Tage Inkubation)	IC50 (L1210 Leukämiezellen; L1210 cells, 1 h incubation with substance at 37°C, washed, then 7 days in soft agar, read-out: Koloniebildungstest IC50, 1 Stunde Inkubation)	IC50 ([1]; L1210 cells, 72 h incubation with test substance, C14 thymidine added after 65 h, IC50 read graphically, read-out: Proliferationstest IC50)
CCC1(O)CC(OC2CC(N(C)C)C(OC3CCC(OC4CCC(O)C(C)O4)C(C)O3)C(C)O2)c2c(O)c3c(c(O)c2C1OC1CC(N(C)C)C(OC2CCC(OC4CCC(O)C(C)O4)C(C)O2)C(C)O1)C(=O)c1c(O)ccc(O)c1C3=O (stereo not drawn) [1-OH-Cytorhodin A, 1-Hydroxy-Cytorhodin A]	2.8 ng/mL (≈ 2.39 nM)	26 ng/mL (≈ 22.2 nM)	3 ng/mL (≈ 2.56 nM)	–	–	–
CCC1(O)CC(OC2CC(N(C)C)C(OC3CCC(OC4C=CC(=O)C(C)O4)C(C)O3)C(C)O2)c2c(O)c3c(c(O)c2C1OC1CC(N(C)C)C(OC2CCC(OC4CCC(O)C(C)O4)C(C)O2)C(C)O1)C(=O)c1c(O)ccc(O)c1C3=O (stereo not drawn) [1-OH-Cytorhodin V, 1-Hydroxy-Cytorhodin V]	–	–	–	0.45 ng/mL (≈ 0.385 nM)	2.4 ng/mL (≈ 2.05 nM)	2.8 ng/mL (≈ 2.39 nM)
COc1cccc2c1C(=O)c1c(O)c3c(c(O)c1C2=O)C[C@@](O)(C(=O)CO)C[C@@H]3O[C@H]1C[C@H](N)[C@H](O)[C@H](C)O1 [ADM, Adriamycin, reference compound]	22 ng/mL (≈ 40.5 nM)	44 ng/mL (≈ 81 nM)	6 ng/mL (≈ 11 nM)	–	–	–
